Data published in patent US9302004B2, “Phenalene-1-one derivatives, method for producing same and use thereof” (TRIOPTOTEC GMBH, priority 2011, dated 2016).
Where a name gives a salt, the structure may show the parent alone.

Assays:
Type in all cases: cell-based
[1] = test system: Staphylococcus aureus (ATCC number: 25923); experiment: Phototoxicity test (photodynamic activity, CFU assay) against gram-positive bacteria; conditions: for Required concentration in order to achieve a reduction by ≧ 3 log10 steps: S. aureus, 15 min incubation in darkness, then irradiation 12.3 J/cm^2 blue light (Emax 418 nm), CFU/ml 24 h after; for antimicrobial action compared with the starting substance perinaphthenone: from Table 1 (S. aureus and E. coli, sentence does not separate them), reduction of the germ count by 3 log10 steps; for times lower concentration needed to achieve a reduction by 3 log10 steps, compared with perinaphthenone: phototoxicity test, Table 1 (S. aureus and E. coli, sentence does not separate them)
Protocol: (§1) A sample of the bacterial strain Staphylococcus aureus (ATCC number: 25923) or Escherichia coli (ATCC number: 25922) was extracted from a cryogenically frozen culture, isolated on Müller-Hinton agar plates, and cultured under aerobic conditions at 37° C. in an overnight culture. 10 ml Müller-Hinton liquid medium was then inoculated with a smear of the bacterial culture (individual colony) and incubated overnight at 37° C. The thus-obtained bacterial suspension was centrifuged for 15 min at 3000 rpm and the obtained bacterial pellet was resuspended in 10 ml sterile PBS. The optical density of the bacterial suspensions for the phototoxicity tests was OD600nm=0.6, which corresponds to a bacterial count of ˜[…] bacteria per ml. The biochemical analysis and resistance determination of the bacteria were carried out with the VITEK2 system according to the guidelines M100-S14 of the NCCLS (National Committee for Clinical Laboratory Standards guidelines 2004).
(§2) 200 μl of a bacterial suspension (bacterial density: 10^8-10^12/ml) was incubated with 200 μl each of different concentrations of the photosensitizers listed in Table 1 at 37° C. in darkness for 15 minutes. The bacteria were then washed twice with PBS, resuspended in 200 μl PBS, the entire volume was transferred to a 96-well microtiter plate and then irradiated.
(§3) For the sensitization, the UV 236 lamp (emission 380-480 nm, with an emission maximum Emax: 418 nm) from Waldmann Medizintechnik was used and the plates lying on the light source were irradiated from below, in order to prevent scattering through the liquid. The applied light dose was 12.3 J/cm^2. As controls, bacterial suspensions that were irradiated, not irradiated and only incubated with photosensitizer were entrained, and incubated both with and without photosensitizer.
(§4) The CFU assay was then carried out to determine the colony-forming units per ml (CFU). For this, a series of dilutions from 10^−1 to 10^−9 of the corresponding bacterial suspension was produced. 100 μl was then plated onto Müller-Hinton plates and incubated at 37° C. for 24 h. The number of surviving colonies was then determined by counting and plotted on a graph as colony-forming units (CFU) per ml against the respectively used photosensitizer concentration.

[2] = test system: Escherichia coli (ATCC number: 25922); experiment: Phototoxicity test (photodynamic activity, CFU assay) against gram-negative bacteria; conditions: E. coli; 15 min incubation in darkness, then irradiation 12.3 J/cm^2 blue light (Emax 418 nm); CFU/ml 24 h after
Protocol: as §1, §2, §3, §4

S. aureus = experiment: Surface disinfection of catheter tubes, cell count after illumination; conditions: catheter sections with dried S. aureus; 5 min in darkness, 12.3 J/cm^2 blue light (Emax 418 nm) for 30 min
Protocol: 5-cm long catheter sections were filled with 1 ml of a stable S. aureus solution (1 E+12 cfu/ml) and incubated overnight at 37° C. After drying-out of the solution, in each case 2 ml of a solution of PBS which contained a corresponding concentration (0, 1, 10, 50, 80 and 100 μM) of the compounds produced in Examples 2), 4b), 5b), 7) and 10) and 1H-phenalene-1-one was sprayed. After a short exposure time of 5 minutes in darkness, the catheter sections were illuminated with a light dose of 12.3 J/cm^2 with blue light (Emax: 418 nm) for a period of 30 min.
As a control, in each case non-illuminated catheter sections were used, to which the corresponding concentrations (0, 1, 10, 50, 80 and 100 μM) of the compounds produced in Examples 1b)-f) and 1H-phenalene-1-one were applied.
To determine the cell count, the illuminated and non-illuminated catheter sections were filled with 1 ml PBS and ultrasounded. Growth medium was added to the washing solution in different dilutions (10^0 to 10^7) and the solution was smeared onto agar plates. The cell count was performed after 24 h of incubation at 37° C.

| SMILES | Required concentration in order to achieve a reduction by ≧ 3 log10 steps [1] | Required concentration in order to achieve a reduction by ≧ 3 log10 steps [2] | antimicrobial action compared with the starting substance perinaphthenone [1] | times lower concentration needed to achieve a reduction by 3 log10 steps, compared with perinaphthenone [1] | times lower concentration needed to achieve a reduction by 3 log10 steps, compared with perinaphthenone (S. aureus) |
| --- | --- | --- | --- | --- | --- |
| O=C1C=Cc2cccc3cccc1c23 [Comparison, perinaphthenone, reference compound] | 200 μM | 300 μM |  |  |  |
| NCC1=Cc2cccc3cccc(c23)C1=O [Example 2, 2-Aminomethyl-1H-phenalene-1-one] | 1 μM | 50 μM | improved antimicrobial action | approximately 10 times | approximately 10 times |
| NCCOCC1=Cc2cccc3cccc(c23)C1=O [Example 4b, 2-((2-Aminoethoxy)methyl)-1H-phenalene-1-one hydrochloride] | 50 μM | 300 μM | improved antimicrobial action | approximately 10 times | approximately 10 times |
| NCCOCCOCC1=Cc2cccc3cccc(c23)C1=O [Example 5b, 2-((2-(2-Aminoethoxy)ethoxy)methyl)-1H-phenalene-1-one hydrochloride] | 50 μM | 80 μM | improved antimicrobial action | approximately 10 times | approximately 10 times |
| O=C1C(C[n+]2ccccc2)=Cc2cccc3cccc1c23 [Example 7] | 80 μM | 10 μM | improved antimicrobial action | approximately 10 times | approximately 10 times |
| CC[N+](CC)(CC)CC1=Cc2cccc3cccc(c23)C1=O [Example 10, 2-((N,N,N-Triethyl)aminomethyl)-1H-phenalene-1-one hydrochloride] | 50 μM for S. aureus; 50 μM for E. coli | 50 μM for S. aureus; 50 μM for E. coli | improved antimicrobial action | approximately 10 times | approximately 10 times |
